Laboratory results published in patent US20220363665A1, “QUINOLINE COMPOUNDS FOR THE TREATMENT OF AUTOIMMUNE DISEASE” (Hoffmann-La Roche Inc., priority 2019, published 2022).

Target: T1, human TLR7 (Homo sapiens, UniProt Q9NYK1)
T1 construct: host or cells: HEK293 (HEK-Blue hTLR7)
T1 sequence (Q9NYK1 27-1049): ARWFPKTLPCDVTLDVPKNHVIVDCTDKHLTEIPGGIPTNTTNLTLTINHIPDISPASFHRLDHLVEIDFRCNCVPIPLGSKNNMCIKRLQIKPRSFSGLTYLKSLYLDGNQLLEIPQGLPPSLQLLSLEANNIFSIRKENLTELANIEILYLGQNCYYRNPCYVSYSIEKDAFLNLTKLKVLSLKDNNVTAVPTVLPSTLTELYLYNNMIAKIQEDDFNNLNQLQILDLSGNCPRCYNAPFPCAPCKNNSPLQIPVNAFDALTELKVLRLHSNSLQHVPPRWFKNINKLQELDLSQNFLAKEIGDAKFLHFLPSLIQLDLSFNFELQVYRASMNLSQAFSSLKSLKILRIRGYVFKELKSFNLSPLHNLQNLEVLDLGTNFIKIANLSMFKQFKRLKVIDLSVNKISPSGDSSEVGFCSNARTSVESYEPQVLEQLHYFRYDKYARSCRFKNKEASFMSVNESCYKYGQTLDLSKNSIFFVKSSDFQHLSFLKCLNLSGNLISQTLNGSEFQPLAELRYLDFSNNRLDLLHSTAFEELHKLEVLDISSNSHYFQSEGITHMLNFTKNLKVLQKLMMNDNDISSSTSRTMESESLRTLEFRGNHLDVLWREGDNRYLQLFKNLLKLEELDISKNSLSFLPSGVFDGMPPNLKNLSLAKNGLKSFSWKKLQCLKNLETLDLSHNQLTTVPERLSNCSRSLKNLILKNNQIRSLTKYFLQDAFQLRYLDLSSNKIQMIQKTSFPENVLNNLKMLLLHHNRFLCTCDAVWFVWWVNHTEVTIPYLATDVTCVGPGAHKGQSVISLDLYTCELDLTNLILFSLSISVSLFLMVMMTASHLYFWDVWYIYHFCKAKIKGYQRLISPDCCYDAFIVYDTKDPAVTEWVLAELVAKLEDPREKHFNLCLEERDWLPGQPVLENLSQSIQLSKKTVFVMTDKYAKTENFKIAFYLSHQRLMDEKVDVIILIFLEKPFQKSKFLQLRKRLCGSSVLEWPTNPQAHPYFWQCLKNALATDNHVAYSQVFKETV
Assay: HEK293-Blue-hTLR-7 cells assay (SEAP reporter, R848 stimulation)
Type: cell-based
Conditions: HEK293-Blue-hTLR7 cells, R848, 20 hrs
Procedure: The following tests were carried out in order to determine the activity of the compounds of formula (I) in HEK293-Blue-hTLR-7/8/9 cells assay.
HEK293-Blue-hTLR-7 Cells Assay:
A stable HEK293-Blue-hTLR-7 cell line was purchased from InvivoGen (Cat. #: hkb-htlr7, San Diego, Calif. USA). These cells were originally designed for studying the stimulation of human TLR7 by monitoring the activation of NF-κB. A SEAP (secreted embryonic alkaline phosphatase) reporter gene was placed under the control of the IFN-β minimal promoter fused to five NF-κB and AP-1-binding sites. The SEAP was induced by activating NF-κB and AP-1 via stimulating HEK-Blue hTLR7 cells with TLR7 ligands. Therefore the reporter expression was declined by TLR7 antagonist under the stimulation of a ligand, such as R848 (Resiquimod), for incubation of 20 hrs. The cell culture supernatant SEAP reporter activity was determined using QUANTI-Blue™ kit (Cat. #: rep-qbl, Invivogen, San Diego, Calif., USA) at a wavelength of 640 nm, a detection medium that turns purple or blue in the presence of alkaline phosphatase.
HEK293-Blue-hTLR7 cells were incubated at a density of 250,000˜450,000 cells/mL in a volume of 170 μL in a 96-well plate in Dulbecco's Modified Eagle's medium (DMEM) containing 4.5 g/L glucose, 50 U/mL penicillin, […], […], 2 mM L-glutamine, 10% (v/v) heat-inactivated fetal bovine serum with addition of 20 μL A test compound in a serial dilution in the presence of final DMSO at 1% and 10 μL of 20 uM R848 in above DMEM, perform incubation under 37° C. in a CO2 incubator for 20 hrs. Then 20 μL of the supernatant from each well was incubated with 180 μQuanti-blue substrate solution at 37° C. for 2 hrs and the absorbance was read at 620˜655 nm using a spectrophotometer. The signalling pathway that TLR7 activation leads to downstream NF-κB activation has been widely accepted, and therefore similar reporter assay was modified for evaluating TLR7 antagonist.

Row | IC50 | SMILES
1 | 0.028 µM | CC(NC(=O)[C@H]1CN(c2ccc(C(F)(F)F)c3ncccc23)C[C@@H](C)O1)C1CN(C)CCO1 (single isomer, unassigned) [Example 35A]
2 | 0.065 µM | CC(NC(=O)[C@H]1CN(c2ccc(C(F)(F)F)c3ncccc23)C[C@@H](C)O1)C1CN(C)CCO1 (single isomer, unassigned) [Example 35B]
3 | 0.008 µM | C[C@@H]1CN(c2ccc(C(F)(F)F)c3ncccc23)C[C@H](C(=O)NC2C3CNCC2COC3)O1 (single isomer, unassigned) [Example 46A]
4 | 0.021 µM | C[C@@H]1CN(c2ccc(C(F)(F)F)c3ncccc23)C[C@H](C(=O)NC2C3CNCC2COC3)O1 (single isomer, unassigned) [Example 46B]
5 | 0.025 µM | C[C@@H]1CN(c2ccc(C(F)(F)F)c3ncccc23)C[C@H](C(=O)NC2CC3CNCC32)O1 (single isomer, unassigned) [Example 49A]
6 | 0.012 µM | C[C@@H]1CN(c2ccc(C(F)(F)F)c3ncccc23)C[C@H](C(=O)NCC2CN(C)CCO2)O1 (stereo partly drawn) [Example 3, (2R,6R)-6-methyl-N-[(4-methylmorpholin-2-yl)methyl]-4-[8-(trifluoromethyl)-5-quinolyl]morpholine-2-carboxamide]
7 | 0.006 µM | C[C@@H]1CN(c2ccc(C(F)(F)F)c3ncccc23)C[C@H](C(=O)NCC2CCCCN2C)O1 (stereo partly drawn) [Example 4, (2R,6R)-6-methyl-N-[(1-methyl-2-piperidyl)methyl]-4-[8-(trifluoromethyl)-5-quinolyl]morpholine-2-carboxamide]
8 | 0.051 µM | C[C@@H]1CN(c2ccc(C(F)(F)F)c3ncccc23)C[C@H](C(=O)NCC2COCCN2C)O1 (stereo partly drawn) [Example 11, (2R,6R)-6-methyl-N-[(4-methylmorpholin-3-yl)methyl]-4-[8-(trifluoromethyl)-5-quinolyl]morpholine-2-carboxamide]
9 | 0.29 µM | C[C@@H]1CN(c2ccc(C(F)(F)F)c3ncccc23)C[C@H](C(=O)NCCN2CCOCC2)O1 [Example 13, (2R,6R)-6-methyl-N-(2-morpholinoethyl)-4-[8-(trifluoromethyl)-5-quinolyl]morpholine-2-carboxamide]
10 | 0.037 µM | C[C@@H]1CN(c2ccc(C(F)(F)F)c3ncccc23)C[C@H](C(=O)NC2CNCCOC2)O1 (stereo partly drawn) [Example 14, (2R,6R)-6-methyl-N-(1,4-oxazepan-6-yl)-4-[8-(trifluoromethyl)-5-quinolyl]morpholine-2-carboxamide]
11 | 0.03 µM | Cc1ccc(N2C[C@@H](C)C[C@@H](N)C2)c2cccnc12 [Example 15, (3R,5S)-5-methyl-1-(8-methyl-5-quinolyl)piperidin-3-amine]
12 | 0.071 µM | Cc1ccc(N2C[C@@H](C)O[C@@H](C(=O)N[C@@H]3CNC[C@@H]3F)C2)c2cccnc12 [Example 21, cis-(2R,6R)-N-14-fluoropyrrolidin-3-yl1-6-methyl-4-(8-methyl-5-quinolyl)morpholine-2carboxamide]
13 | 0.2 µM | C[C@@H]1CN(c2ccc(C(F)(F)F)c3ncccc23)C[C@H](C(=O)NC2CNCC(F)(F)C2)O1 (stereo partly drawn) [Example 28, (2R,6R)-N-(5,5-difluoro-3-piperidyl)-6-methyl-4-[8-(trifluoromethyl)-5-quinolyl]morpholine-2-carboxamide]
14 | 0.037 µM | C[C@@H]1CN(c2ccc(C(F)(F)F)c3ncccc23)C[C@H](C(=O)NCC2CNCC2(F)F)O1 (stereo partly drawn) [Example 29, (2R,6R)-N-[(4,4-difluoropyrrolidin-3-yl)methyl]-6-methyl-4-[8-(trifluoromethyl)-5-quinolyl]morpholine-2-carboxamide]
15 | 0.37 µM | C[C@@H]1CN(c2ccc(C(F)(F)F)c3ncccc23)C[C@H](C(=O)NC[C@@H]2CC(F)(F)CN2)O1 [Example 30]
16 | 0.078 µM | C[C@@H]1CN(c2ccc(C(F)(F)F)c3ncccc23)C[C@H](C(=O)N2CCC3(CCNCC3)CC2)O1 [Example 32, 3,9-diazaspiro[5.5]undecan-3-yl-[(2R,6R)-6-methyl-4-[8-(trifluoromethyl)-5-quinolyl]morpholin-2-yl]methanone]
17 | 0.13 µM | C[C@@H]1CN(c2ccc(C(F)(F)F)c3ncccc23)C[C@H](C(=O)N2CCC3(CCNC3)C2)O1 (stereo partly shown) [Example 36]
18 | 0.002 µM | C[C@@H]1CN(c2ccc(C(F)(F)F)c3ncccc23)C[C@H](C(=O)NC2CC3CNCC(C3)C2)O1 (stereo partly drawn) [Example 37, (2R,6R)-N-(3-azabicyclo[3.3.1]nonan-7-yl)-6-methyl-4-[8-(trifluoromethyl)-5-quinolyl]morpholine-2-carboxamide]
19 | 0.007 µM | C[C@@H]1CN(c2ccc(I)c3ncccc23)C[C@H](C(=O)NCC2CN(C)CCO2)O1 (stereo partly drawn) [Example 39, (2R,6R)-4-(8-iodo-5-quinolyl)-6-methyl-N-[(4-methylmorpholin-2-yl)methyl]morpholine-2-carboxamide]
20 | 0.015 µM | C[C@@H]1CN(c2ccc(I)c3ncccc23)C[C@H](C(=O)NC2CNCC2F)O1 (stereo partly drawn) [Example 40, cis-(2R,6R)-N-[4-fluoropyrrolidin-3-yl]-4-(8-iodo-5-quinolyl)-6-methyl-morpholine-2-carboxamide]
21 | 0.015 µM | C[C@@H]1CN(c2ccc(Br)c3ncccc23)C[C@H](C(=O)NC2CNCC2F)O1 (stereo partly drawn) [Example 41, cis-(2R,6R)-4-(8-bromo-5-quinolyl)-N-[4-fluoropyrrolidin-3-yl]-6-methyl-morpholine-2-carboxamide]

Row | SMILES | IC50
22 | C[C@@H]1CN(c2ccc(C(F)(F)F)c3ncccc23)C[C@H](C(=O)NC2CC3CCC(C2)N3)O1 (single isomer, unassigned) [Example 47A] | < 0.003 µM
23 | C[C@@H]1CN(c2ccc(C(F)(F)F)c3ncccc23)C[C@H](C(=O)NC2CC3CCC(C2)N3)O1 (single isomer, unassigned) [Example 47B] | < 0.003 µM
24 | C[C@@H]1CN(c2ccc(C(F)(F)F)c3ncccc23)C[C@H](C(=O)NC2CN(C)CC23CC3)O1 (stereo partly drawn) [Example 9, (2R,6R)-6-methyl-N-(5-methyl-5-azaspiro[2.4]heptan-7-yl)-4-[8-(trifluoromethyl)-5-quinolyl]morpholine-2-carboxamide] | 0.014 µM
25 | C[C@@H]1CN(c2ccc([N+](=O)[O-])c3ncccc23)C[C@H](C(=O)NCC2CN(C)CCO2)O1 (stereo partly drawn) [Example 18, (2R,6R)-6-methyl-N-[(4-methylmorpholin-2-yl)methyl]-4-(8-nitro-5-quinolyl)morpholine-2-carboxamide] | 0.005 µM
26 | C[C@@H]1CN(c2ccc([N+](=O)[O-])c3ncccc23)C[C@H](C(=O)N[C@@H]2CNC[C@@H]2F)O1 [Example 19, cis-(2R,6R)-N-[41-fluoropyrrolidin-3-yl]-6-methyl-4-(8-nitro-5-quinolyl)morpholine-2-carboxamide] | 0.014 µM
27 | C[C@@H]1CN(c2ccc([N+](=O)[O-])c3ncccc23)C[C@H](C(=O)NC2CCN(C)CC2)O1 [Example 20, (2R,6R)-6-methyl-N-(1-methyl-4-piperidyl)-4-(8-nitro-5-quinolyl)morpholine-2-carboxamide] | 0.002 µM
28 | C[C@@H]1CN(c2ccc(C(F)(F)F)c3ncccc23)C[C@H](C(=O)NC2CC3COCC(C2)N3)O1 (stereo partly drawn) [Example 33, (2R,6R)-6-methyl-N-(3-oxa-9-azabicyclo[3.3.1]nonan-7-yl)-4-[8-(trifluoromethyl)-5-quinolyl]morpholine-2-carboxamide] | 0.002 µM
